Measured values published in patent US20160272713A1, “Fibrosis Inhibiting Compounds and Methods of Use Thereof in the Prevention or Treatment of Fibrosing Diseases” (priority 2013, published 2016).

Tests used:
[1] = tested on: fibrocyte formation from human PBMCs; assay: fibrocyte formation (differentiation) assay with PBMCs in serum-free medium; assay type: cell-based; conditions: for IC50: PBMC, read-out: IC50 of inhibition of fibrocyte formation; for effect on fibrocyte formation / differentiation (in words): counts normalized to control; for concentration at which fibrocyte formation was significantly inhibited: p<0.05 (t-test)
Text: (§1) Human blood was collected into heparin tubes (BD Bioscience, San Jose, Calif.) from adult volunteers who gave written consent and with specific approval from the Texas A&M University human subjects Institutional Review Board. PBMCs were then isolated as previously described in Pilling, D. et al., Improved serum-free culture conditions for differentiation of human and murine fibrocytes, Journal of Immunology Methods 351:62-70 (2009), incorporated in material part by reference herein. Alamar Blue (Life Technologies, Grand Island, N.Y.) was used to assess cell viability following the manufacturer's protocol. Fibrocyte differentiation assays in the presence of different compounds were performed in serum-free medium as described in Pilling, D. et al., Improved serum-free culture conditions for differentiation of human and murine fibrocytes, Journal of Immunology Methods 351:62-70 (2009) which is incorporated in material part by reference herein. Macrophage polarization assays to detect formation of proinflammatory macrophages with an M1 phenotype were carried out in serum-free medium, in which case monocytes were left to differentiate to macrophages for 5 days and then the medium was replaced with fresh medium containing 3 microgram/ml of the tested protein.

[2] = tested on: C57/BL6 mice; assay: bleomycin-induced pulmonary fibrosis in mice; assay type: in vivo
Description: To determine the effects of compound 1 in treatment of a fibrosing disease, pulmonary fibrosis was selected as a model. Pulmonary fibrosis was induced in C57/BL6 mice by oropharyngeal aspiration of bleomycin into their lungs. 24 hour after bleomycin administration, mice received daily intraperitoneal injections of compound 1. At day 21 mice were euthanized and the bronchoalveolar lavage fluid (BAL) and the lungs were harvested.
The successful aspiration of bleomycin into the lungs was confirmed by listening for the crackling noise heard after the aspiration. Starting 24 hours following bleomycin aspiration (day 1), mice were treated daily with intraperitoneal injections of 50 microliters of PBS containing 2 microliters of 1 mg/ml of compound 1 (ChemBridge Corporation, San Diego, Calif.) (0.1 mg/kg) dissolved in DMSO (SigmaAldrich), 2 microliters of 0.1 mg/ml of compound 1 (0.01 mg/kg) dissolved in DMSO, 2 microliters of 0.01 mg/ml of compound 1 (0.001 mg/kg) dissolved in DMSO, or an equal volume of PBS containing 2 microliters of DMSO. All animals were used in accordance with rules published by the National Institutes of Health and with a protocol approved by the Texas A&M University Institutional Animal Care and Use Committee. Mice were weighed daily, and euthanized using CO2 following NIH guidelines at day 21 after bleomycin aspiration. No injections were done on day 21. […] The BAL cells from the first BAL collection were collected by centrifugation at 500×g for 10 minutes, and the supernatants were transferred to Eppendorf tubes. The supernatants were flash frozen with liquid nitrogen, and stored at −20° C. until further use. The BAL pellets were resuspended in the secondary and tertiary BAL fluid and the combined cells were collected by centrifugation at 500×g for 5 minutes. The cells were resuspended in 500 microliters of 4% (w/v) BSA-PBS and counted with a hemocytometer. 100 microliters of diluted cells were then aliquoted into cytospin funnels and were then spun onto glass slides (Superfrost plus white slides, VWR) at 400×g for 5 minutes using a cytospin centrifuge (Shandon, Cheshire, England). These cells were then air-dried, and stained for CD11b (Biolegend) or CD11c (MBL International, Woburn, Mass.) as described below.
After collection of BAL fluid, mouse lungs were inflated with prewarmed OCT (VWR, Radnor, Pa.) and then embedded in OCT, frozen on dry ice, and then stored at −80° C. 6-micron cryosections of mouse lung were mounted on Superfrost Plus microscope slides (VWR). Sections were fixed in acetone for 20 min at room temperature. […] After washing, the biotinylated antibodies were detected by streptavidin-alkaline phosphatase (Vector Laboratories) following the manufacturer's protocol. […]

[3] = tested on: macrophages; assay: macrophage polarization assay (M1 marker ICAM-1, M2 marker CD163); assay type: cell-based, human; conditions: 3 microgram/ml protein
Text: as §1
Macrophage staining with anti-CD163 and anti-ICAM-1 antibodies was carried out as described in Pilling, D. et al., Identification of markers that distinguish monocyte-derived fibrocytes from monocytes, macrophages, and fibroblasts, PloS one 10:e7475 (2009) which is incorporated in material part by reference herein. Both primary antibodies were used at a concentration of 5 microgram/ml.

[4] = 0.1, 0.01 and 0.001 mg/kg daily intraperitoneal, day 21

| Molecule | IC50 [1] [nM] | effect on fibrocyte formation / differentiation (in words) [1] | expression of the M1 marker ICAM-1 [3] | expression of the M2 marker CD163 [3] | further results |
| --- | --- | --- | --- | --- | --- |
| CCC(=O)Nc1nc(C)c(-c2csc(Nc3ccc(N(C)C)cc3)n2)s1 [Compound 1] | 0.0031 | – | – | – | CD11b positive inflammatory macrophages in the BAL vs bleomycin control [2, 4]: significantly decreased; collagen in the lungs (picrosirius red) vs bleomycin alone [2, 4]: significantly less collagen in the lungs; number of CD11b positive inflammatory macrophages in the lung sections ([2]; 0.1 and 0.01 mg/kg daily intraperitoneal, day 21, after BAL): significantly decreased; CD11c positive macrophages in the BAL ([2]; daily intraperitoneal injections, day 21): not altered significantly |
| CCCOC(=O)c1ccc(-c2ccc(C=C3C(=O)N(c4ccc(S(N)(=O)=O)cc4)N=C3C(F)(F)F)o2)cc1 [Compound 2] | 0.33 | – | – | – | – |
| COC(=O)c1ccc(-c2ccc(C=C3C(=O)N(c4ccc(S(N)(=O)=O)cc4)N=C3C(F)(F)F)o2)cc1 [Compound 3] | 2.2 | significantly inhibited fibrocyte formation at all tested concentrations | – | – | – |
| SAP NA: enzymatically (neuraminidase) desialylated SAP lacking the terminal sialic acids | – | reduced inhibitory effect on fibrocyte differentiation | increased the expression of the M1 marker ICAM-1 | did not | – |
| SAP: Serum amyloid P, 125 kDa pentameric pentraxin protein | – | – | did not cause such an increase | increased the expression of the M2 marker CD 163 | concentration at which fibrocyte formation was significantly inhibited [1]: ≥ 0.25 microgram/ml |
| CRP A32N: CRP glycosylated by mutating its 32nd amino acid from alanine to asparagine (protein, UniProt P02741 19-224, looked up, variant A32N) C-reactive protein: QTDMSRKAFVFPKESDTSYVSLKAPLTKPLKNFTVCLHFYTELSSTRGYSIFSYATKRQDNEILIFWSKDIGYSFTVGGSEILFEVPEVTVAPVHICTSWESASGIVEFWVDGKPRVRKSLKKGYTVGAEASIILGQEQDSFGGNFEGSQSLVGDIGNVNMWDFVLSPDEINTIYLGGPFSPNVLNWRALKYEVQGEVFTKPQLWP | – | able to inhibit fibrocyte formation, although not as well as SAP | did not cause such an increase | increased the expression of the M2 marker CD 163 | concentration at which fibrocyte formation was significantly inhibited [1]: ≥ 1 microgram/ml |
| CRP: C-reactive protein, 51% sequence identity with SAP (protein, UniProt P02741 19-224, looked up) C-reactive protein: QTDMSRKAFVFPKESDTSYVSLKAPLTKPLKAFTVCLHFYTELSSTRGYSIFSYATKRQDNEILIFWSKDIGYSFTVGGSEILFEVPEVTVAPVHICTSWESASGIVEFWVDGKPRVRKSLKKGYTVGAEASIILGQEQDSFGGNFEGSQSLVGDIGNVNMWDFVLSPDEINTIYLGGPFSPNVLNWRALKYEVQGEVFTKPQLWP | – | – | increased the expression of the M1 marker ICAM-1 | did not | – |
